Counter-ions that a name gives are not always drawn.
Experiments:
Type in all cases: cell-based, human
[1] = system: normal esophageal epithelium cell line EACN42; assay: FDA library drug sensitivity testing (CellTiter-Glo, 72 h), normal control cells; design: key to DSS: modified drug sensitivity score (DSSmod) from dose-response curve fit
Method in brief: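 HPV E6-E7-immortalized normal human esophageal epithelial cells, 1000 per well, exposed 72 h at 37 °C to drugs in duplicate from 10μM top concentration across a 20,000-fold range. Viability by ATP bioluminescence; DMSO wells as negative control; curves scored with modified drug sensitivity score (DSSmod).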

[2] = system: OE19 cells; assay: FDA library drug sensitivity testing (CellTiter-Glo, 72 h); conditions: sDSSmod = DSSmod (patient cells) - DSSmod (normal cells)
From the text: (§1) OE33, OE19 and SKGT2 human esophageal adenocarcinoma cell lines were obtained from the European Collection of Cell Culture ([…]). Flo1, EAC42 and EAC47 cells were established in the Capobianco Laboratory. EAC42 and EAC47 human esophageal adenocarcinoma cell lines are derived from patients undergoing surgery at the Miller School of Medicine, University of Miami. The Capobianco laboratory obtained written informed consent from all patients and approval from the Institutional Research Ethics Committee.
(§2) Drug sensitivity testing (DST) was performed as described previously. […] Individual drugs were dissolved in 100% DMSO and tested in duplicates starting at a maximal test concentration of 10μM then over a 20,000-fold concentration range to generate dose response curves. Wells with assay buffer containing DMSO served as negative controls. 1000 exponentially growing cells were seeded per well in 384-well micro-titer plates and incubated in the presence of compounds in a humidified environment at 37°C and 5% CO2. After 72 hours of treatment, cell viability was assessed by measuring ATP levels via bioluminescence (CellTiter-Glo, Promega) according to manufactures recommendations. Interpretation of curve parameters was performed according to the modified drug sensitivity scoring (DSSmod) function developed by Swords et al. […] Given in this way, the sDSSmod incorporated information on each drug’s potency, efficacy, effect range and therapeutic index, making it possible to prioritize compounds over multiple parameters using a single numerical metric. […] All calculations and scoring routines are implemented in MatLab and additional curve fitting and statistical analyses are performed in GraphPad prism.

[3] = system: OE33 cells; assay: as above; conditions: OE33; sDSSmod = DSSmod (patient cells) - DSSmod (normal cells)
From the text: as §1, §2

[4] = system: SK-GT2 cells; assay: as above; conditions: SK-GT2; sDSSmod = DSSmod (patient cells) - DSSmod (normal cells)
From the text: as §1, §2

[5] = system: Flo-1 cells; assay: as above; conditions: Flo-1; sDSSmod = DSSmod (patient cells) - DSSmod (normal cells)
From the text: as §1
Drug sensitivity testing (DST) was performed as described previously. […] Individual drugs were dissolved in 100% DMSO and tested in duplicates starting at a maximal test concentration of 10μM then over a 20,000-fold concentration range to generate dose response curves. Wells with assay buffer containing DMSO served as negative controls. 1000 exponentially growing cells were seeded per well in 384-well micro-titer plates and incubated in the presence of compounds in a humidified environment at 37°C and 5% CO2. After 72 hours of treatment, cell viability was assessed by measuring ATP levels via bioluminescence (CellTiter-Glo, Promega) according to manufactures recommendations. Interpretation of curve parameters was performed according to the modified drug sensitivity scoring (DSSmod) function developed by Swords et al. As a final step, the selective DSSmod (sDSSmod) for each drug in each patient screen is calculated according to the formula sDSSmod = DSSmod (patient cells)—DSSmod (normal cells). Given in this way, the sDSSmod incorporated information on each drug’s potency, efficacy, effect range and therapeutic index, making it possible to prioritize compounds over multiple parameters using a single numerical metric. In addition, this methodology allows us to rank compounds by cancer-selective efficacy for each individual patient. […] All calculations and scoring routines are implemented in MatLab and additional curve fitting and statistical analyses are performed in GraphPad prism.

[6] = system: EAC42 cells; assay: as above; conditions: EAC42; sDSSmod = DSSmod (patient cells) - DSSmod (normal cells)
From the text: as §1, §2

[7] = system: EAC47 cells; assay: as above; conditions: EAC47; sDSSmod = DSSmod (patient cells) - DSSmod (normal cells)
From the text: as §1, §2

[8] = Homo sapiens, 72 h, EACN42 normal esophageal cells, cell viability (ATP), max test concentration 10μM
[9] = drug sensitivity score, EACN42 normal esophageal cells, 72 h
[10] = Homo sapiens; EACN42 normal esophageal cells, 72 h, cell viability (ATP), max test concentration 10μM

SMILES	EC50 [1, 8] [µM]	DSS [1, 9]	sDSSmod [2]	sDSSmod [3]	sDSSmod [4]	sDSSmod [5]	EC50 [1, 10] [µM]	sDSSmod [6]	sDSSmod [7]	EC50 ([1]; EACN42 normal esophageal cells, 72 h, cell viability (ATP), max test concentration 10μM) [µM]
CC(C)C[C@H](NC(=O)[C@H](CCc1ccccc1)NC(=O)CN1CCOCC1)C(=O)N[C@@H](Cc1ccccc1)C(=O)N[C@@H](CC(C)C)C(=O)[C@@]1(C)CO1 [Cartilzomib, Carfilzomib]	0.08	44.43	-42.8127	-43.92	-44.432	-44.35				
C/C=C(\C)C(=O)N[C@@H](c1ccccc1)[C@@H](O)C(=O)O[C@H]1C[C@@]2(O)[C@@H](OC(=O)c3ccccc3)[C@@H]3[C@]4(OC(C)=O)CO[C@@H]4C[C@H](O)[C@@]3(C)C(=O)[C@H](OC(C)=O)C(=C1C)C2(C)C [Cephalomannine]		23.35		5.452	21.46	12.79	0.162	-5.552	-8.868	
Nc1nc(Cl)nc2c1ncn2[C@@H]1O[C@H](CO)[C@@H](O)[C@@H]1F [Clofarabine]	0.07	19.89	-19.554	16.0076	-9.559			-8.024	-10.1317	
COc1cccc2c1C(=O)c1c(O)c3c(c(O)c1C2=O)C[C@@](O)(C(C)=O)C[C@@H]3O[C@H]1C[C@H](N)[C@H](O)[C@H](C)O1 [Daunorubicin HCl]		21.12	-13.6679			5.15	0.98			
CC(=O)O[C@@]12CO[C@@H]1C[C@H](O)[C@@]1(C)C(=O)[C@H](O)C3=C(C)[C@@H](OC(=O)[C@H](O)[C@@H](NC(=O)OC(C)(C)C)c4ccccc4)C[C@@](O)([C@@H](OC(=O)c4ccccc4)[C@H]21)C3(C)C [Docetaxel]	3	40.14			16.5247	8.04		-15.5932	-23.2183	
COc1cccc2c1C(=O)c1c(O)c3c(c(O)c1C2=O)C[C@@](O)(C(=O)CO)C[C@@H]3O[C@H]1C[C@H](N)[C@H](O)[C@H](C)O1 [Doxorubicin]	1.42	15.67	-12.9053		-8.365	7.66				
Nc1nc(F)nc2c1ncn2[C@@H]1O[C@H](CO)[C@@H](O)[C@@H]1O [Fludarabine]	0.07	42.19	-20.7262	-9.248	-12.4173			-42.0707	-42.19	
CCc1c2c(nc3ccc(OC(=O)N4CCC(N5CCCCC5)CC4)cc13)-c1cc3c(c(=O)n1C2)COC(=O)[C@]3(O)CC.Cl.O.O.O [Irinotecan HCl Trihydrate]		13.38	-12.0524	12.07	-7.5553			-6.563	-6.3823	1.57
CCc1c2c(nc3ccc(OC(=O)N4CCC(N5CCCCC5)CC4)cc13)-c1cc3c(c(=O)n1C2)COC(=O)[C@]3(O)CC [Irinotecan]	5.11	6.99	-6.34	5.246	-5.574				-5.5855	
O=C1c2c(O)ccc(O)c2C(=O)c2c(NCCNCCO)ccc(NCCNCCO)c21 [Mitoxantrone Hydrochloride]	1.67	17.16		9.033		17.0838		6.699	5.242	
COc1c(C)c2c(c(O)c1C/C=C(\C)CCC(=O)OCCN1CCOCC1)C(=O)OC2 [Mycophenolate mofetil]	2.18	2.66		11.03		5.44		6.417		
COc1c(C)c2c(c(O)c1C/C=C(\C)CCC(=O)O)C(=O)OC2 [Mycophenolic]		2.17		16.23		10.92		8.479	5.9818	
Cc1cn(-c2cc(NC(=O)c3ccc(C)c(Nc4nccc(-c5cccnc5)n4)c3)cc(C(F)(F)F)c2)cn1 [Nilotinib]	> 10	0.43	18.74	32.09	27.22	37.8				
CC(=O)O[C@H]1C(=O)[C@@]2(C)[C@H]([C@H](OC(=O)c3ccccc3)[C@]3(O)C[C@H](OC(=O)[C@H](O)[C@@H](NC(=O)c4ccccc4)c4ccccc4)C(C)=C1C3(C)C)[C@]1(OC(C)=O)CO[C@@H]1C[C@@H]2O [Paclitaxel]	0.01	34.94		7.642	12.8	9.33		-12.1	-17.6632	
Cc1[nH]c2ccccc2c1CCNCc1ccc(/C=C/C(=O)NO)cc1 [Panobinostat]	0.09	40.42	-40.4215	-40.4215	-40.4215	-40.42		7.607		
Cc1ccc(Nc2nccc(N(C)c3ccc4c(C)n(C)nc4c3)n2)cc1S(N)(=O)=O.Cl [Pazopanib HCl]		0.07		11.37		8.16				
Cc1ccc(C(=O)Nc2ccc(CN3CCN(C)CC3)c(C(F)(F)F)c2)cc1C#Cc1cnc2cccnn12 [Ponatinib]		11.77	-11.756	-6.155	-11.7711		2.81	-11.7731	-11.7731	
CCC(C)(C)C(=O)O[C@H]1C[C@@H](C)C=C2C=C[C@H](C)[C@H](CC[C@@H]3C[C@@H](O)CC(=O)O3)[C@H]21 [Simvastatin]	3.35	5.66	-5.647	26.15	-5.66			-5.363	-5.66	
[Na+].[Na+].[Na+].[O]=[V]([O-])([O-])[O-] [Sodium orthovanadate]		0	5.913		23.66	13.33				
COc1cc([C@@H]2c3cc4c(cc3[C@@H](O[C@@H]3O[C@@H]5CO[C@@H](c6cccs6)O[C@H]5[C@H](O)[C@H]3O)[C@H]3COC(=O)[C@H]23)OCO4)cc(OC)c1O [Teniposide]	5.17	6.79		39.45		10.22				
CC[C@]1(O)C[C@H]2CN(CCc3c([nH]c4ccccc34)[C@@](C(=O)OC)(c3cc4c(cc3OC)N(C=O)[C@H]3[C@@](O)(C(=O)OC)[C@H](OC(C)=O)[C@]5(CC)C=CCN6CC[C@]43[C@@H]65)C2)C1 [Vincristine]	0.03			-8.234	-7.21	6.31		-7.92	-16.3015	
O=P(O)(O)C(O)(Cn1ccnc1)P(=O)(O)O [Zoledronic Acid]		0				5.26		9.833	6.526	

From PMC6136712, “Ex vivo drug sensitivity testing as a means for drug repurposing in esophageal adenocarcinoma” (PLoS ONE, 2018)
